Data on one compound can be found in US20180290977A1, “KDM4 INHIBITORS” (Albert-Ludwigs-University Freiburg, priority 2017, published 2018).

Where two headings read alike, the source gives them in different places.

Common to all, as to test: KDM demethylase inhibition (IC50)
What all share (type): biochemical

One test deals with T1, KDM4D (Homo sapiens, UniProt Q6B0I6).
T1 sequence (Q6B0I6 1-523): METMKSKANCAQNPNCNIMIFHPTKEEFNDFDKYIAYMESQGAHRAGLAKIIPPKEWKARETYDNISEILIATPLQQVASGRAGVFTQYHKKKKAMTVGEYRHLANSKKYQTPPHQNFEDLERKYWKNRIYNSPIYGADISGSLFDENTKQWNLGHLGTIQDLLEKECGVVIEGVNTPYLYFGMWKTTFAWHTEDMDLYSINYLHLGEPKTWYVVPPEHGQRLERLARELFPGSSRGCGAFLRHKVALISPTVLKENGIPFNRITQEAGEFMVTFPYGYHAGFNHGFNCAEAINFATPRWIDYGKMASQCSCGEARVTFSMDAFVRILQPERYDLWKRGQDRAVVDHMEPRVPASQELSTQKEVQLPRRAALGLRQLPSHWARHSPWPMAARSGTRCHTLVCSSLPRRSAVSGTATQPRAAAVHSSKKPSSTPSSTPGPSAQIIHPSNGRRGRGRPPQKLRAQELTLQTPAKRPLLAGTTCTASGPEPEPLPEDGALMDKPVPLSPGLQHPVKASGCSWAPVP

A further test deals with T2, KDM2B (Homo sapiens, UniProt Q8NHM5).
T2 sequence (Q8NHM5 1-1336): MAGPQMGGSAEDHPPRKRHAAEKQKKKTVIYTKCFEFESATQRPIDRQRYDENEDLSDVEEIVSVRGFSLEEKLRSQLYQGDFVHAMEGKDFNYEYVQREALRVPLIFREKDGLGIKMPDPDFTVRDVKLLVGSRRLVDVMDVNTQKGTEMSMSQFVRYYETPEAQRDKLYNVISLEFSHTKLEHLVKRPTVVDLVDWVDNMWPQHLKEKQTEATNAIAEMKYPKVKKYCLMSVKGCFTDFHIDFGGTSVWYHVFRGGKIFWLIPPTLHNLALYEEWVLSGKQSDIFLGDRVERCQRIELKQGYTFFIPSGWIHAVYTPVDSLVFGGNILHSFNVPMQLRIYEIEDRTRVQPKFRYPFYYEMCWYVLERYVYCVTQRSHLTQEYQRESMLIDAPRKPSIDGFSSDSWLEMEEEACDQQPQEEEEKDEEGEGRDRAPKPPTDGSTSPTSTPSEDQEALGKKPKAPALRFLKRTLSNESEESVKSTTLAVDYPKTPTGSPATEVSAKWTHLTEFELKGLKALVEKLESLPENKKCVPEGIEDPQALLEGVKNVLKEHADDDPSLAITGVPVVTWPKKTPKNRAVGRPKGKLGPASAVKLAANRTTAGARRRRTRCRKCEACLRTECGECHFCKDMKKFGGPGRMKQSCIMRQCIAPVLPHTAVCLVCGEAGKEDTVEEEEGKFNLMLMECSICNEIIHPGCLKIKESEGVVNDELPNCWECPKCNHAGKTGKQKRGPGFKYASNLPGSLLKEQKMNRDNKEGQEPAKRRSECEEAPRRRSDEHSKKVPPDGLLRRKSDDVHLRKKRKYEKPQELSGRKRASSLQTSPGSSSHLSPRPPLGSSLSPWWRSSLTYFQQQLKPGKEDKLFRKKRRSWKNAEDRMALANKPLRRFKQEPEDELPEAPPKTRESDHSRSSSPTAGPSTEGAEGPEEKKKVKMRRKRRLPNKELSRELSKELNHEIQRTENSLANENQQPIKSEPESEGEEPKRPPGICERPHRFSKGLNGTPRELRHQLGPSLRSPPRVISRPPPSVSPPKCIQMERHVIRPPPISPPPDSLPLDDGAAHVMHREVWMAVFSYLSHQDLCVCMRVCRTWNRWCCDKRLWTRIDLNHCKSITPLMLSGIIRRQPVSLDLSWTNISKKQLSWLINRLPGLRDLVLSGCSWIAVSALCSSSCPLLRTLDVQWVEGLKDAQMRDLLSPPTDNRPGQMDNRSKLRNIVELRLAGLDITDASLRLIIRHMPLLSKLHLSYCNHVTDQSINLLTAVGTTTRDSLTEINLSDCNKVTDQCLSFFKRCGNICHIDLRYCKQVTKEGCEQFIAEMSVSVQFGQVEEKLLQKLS

A further test concerns the target KDM5B (Homo sapiens, UniProt Q9UGL1).

KDM5B, sequence (Q9UGL1 whole entry): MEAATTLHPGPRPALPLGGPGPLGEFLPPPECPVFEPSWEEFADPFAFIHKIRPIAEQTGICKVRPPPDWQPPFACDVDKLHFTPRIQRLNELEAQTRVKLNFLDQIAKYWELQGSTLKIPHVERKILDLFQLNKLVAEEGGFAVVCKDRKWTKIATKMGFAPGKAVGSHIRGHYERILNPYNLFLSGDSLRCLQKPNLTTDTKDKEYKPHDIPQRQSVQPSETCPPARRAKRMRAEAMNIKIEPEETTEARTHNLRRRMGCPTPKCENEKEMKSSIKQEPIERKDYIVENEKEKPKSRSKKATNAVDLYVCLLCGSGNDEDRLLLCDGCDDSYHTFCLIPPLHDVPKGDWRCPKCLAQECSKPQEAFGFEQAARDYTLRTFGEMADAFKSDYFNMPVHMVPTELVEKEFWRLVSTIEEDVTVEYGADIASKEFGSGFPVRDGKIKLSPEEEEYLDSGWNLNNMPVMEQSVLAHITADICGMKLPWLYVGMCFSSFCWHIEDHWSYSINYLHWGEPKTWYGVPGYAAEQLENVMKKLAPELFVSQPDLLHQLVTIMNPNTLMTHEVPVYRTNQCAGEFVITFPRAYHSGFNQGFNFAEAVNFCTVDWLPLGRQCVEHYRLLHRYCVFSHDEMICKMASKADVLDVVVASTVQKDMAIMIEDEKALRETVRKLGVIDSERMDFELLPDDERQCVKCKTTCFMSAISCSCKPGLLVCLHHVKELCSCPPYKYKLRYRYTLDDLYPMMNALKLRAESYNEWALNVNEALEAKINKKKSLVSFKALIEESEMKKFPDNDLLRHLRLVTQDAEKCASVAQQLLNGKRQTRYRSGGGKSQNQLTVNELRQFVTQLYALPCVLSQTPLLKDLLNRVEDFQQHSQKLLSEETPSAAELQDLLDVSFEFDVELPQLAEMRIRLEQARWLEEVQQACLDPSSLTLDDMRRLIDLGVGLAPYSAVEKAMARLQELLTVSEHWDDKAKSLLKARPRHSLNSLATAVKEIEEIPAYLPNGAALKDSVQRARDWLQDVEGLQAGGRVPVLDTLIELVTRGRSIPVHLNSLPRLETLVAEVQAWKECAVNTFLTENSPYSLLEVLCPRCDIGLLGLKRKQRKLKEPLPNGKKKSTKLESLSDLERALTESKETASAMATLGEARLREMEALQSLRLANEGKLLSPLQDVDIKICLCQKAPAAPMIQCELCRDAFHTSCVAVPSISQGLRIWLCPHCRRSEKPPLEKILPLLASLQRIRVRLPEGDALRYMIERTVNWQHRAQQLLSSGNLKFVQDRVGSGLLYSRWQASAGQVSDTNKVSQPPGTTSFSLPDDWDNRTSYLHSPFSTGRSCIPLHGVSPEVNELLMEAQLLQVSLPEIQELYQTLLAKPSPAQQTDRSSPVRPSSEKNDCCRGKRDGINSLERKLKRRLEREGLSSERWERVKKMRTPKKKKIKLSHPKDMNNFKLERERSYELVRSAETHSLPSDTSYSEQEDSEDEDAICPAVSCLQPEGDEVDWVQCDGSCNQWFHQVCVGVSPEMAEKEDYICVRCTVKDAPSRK

On to `CN(c1ccccc1)c1ccc2c(c1)CCC[C@H]2CNc1cnccc1C(=O)O` [Compound I, 3-({[(1R)-6-[methyl(phenyl)amino]-1,2,3,4-tetrahydronaphthalen-1-yl]methyl}amino)pyridine-4-carboxylic Acid], for which the IC50 (as a rule, the concentration at which inhibition is half-maximal) at KDM4D (read-out: Compound I IC50) is 104 nM; on KDM4D (read-out: IC50, demethylase activity), under 105 nM; on KDM2B it was over 10000 nM; on KDM5B (read-out: Compound I IC50, KDM5B), 750 nM. Further, the “effect on the demethylase activity of KDM5B” value at KDM5B is listed as “weak effect”.
